Measurements from patent publication US11124513B2, “Avibactam free acid” (Sandoz AG, priority 2016, dated 2021).
Counter-ions that a name gives are not always drawn.

How the values were obtained:
[1] = test system: bacteria; conditions: at clinically relevant doses; reported; cited from earlier work
[2] = Thermogravimetric analysis; assay type: physicochemical; conditions: up to a temperature of about 130° C.; 10 K/min; crystalline Form 1 (FIG. 4)
Protocol: Thermogravimetric analysis (TGA) was performed on a Mettler TGA/DSC 1 instrument. The sample (6.30 mg) was heated in a 100 microL aluminum pan closed with an aluminum lid. The lid was automatically pierced at the beginning of the measurement. The sample was heated from 25 to 200° C. at a rate of 10 K/min. Nitrogen (purge rate 50 mL/min) was used as purge gas.

[3] = Stability against temperature stress (dehydration, form conversion); assay type: physicochemical
[4] = Differential scanning calorimetry; assay type: physicochemical; conditions: 10 K/min; crystalline Form 1 (FIG. 3)
Protocol: Differential scanning calorimetry was performed on a Mettler Toledo Polymer DSC R instrument. The sample (1.27 mg) was heated in a 40 microL aluminium pan with pierced aluminium lid from 25 to 160° C. at a rate of 10 K/min. Nitrogen (purge rate 50 mL/min) was used as purge gas.

[5] = Stability against moisture / hygroscopicity
[6] = stated in WO 2011/042560 A1 (page 17); cited from earlier work
[7] = stated in WO 2011/042560 A1; cited from earlier work

SMILES | antibacterial activity of its own [1] | weight loss, thermogravimetric analysis [2] | behaviour under temperature stress [3] | temperature up to which no thermal event is seen in the differential scanning calorimetry curve [4] | hygroscopicity [5] | stability against moisture ([5]; increased relative humidity levels) | tendency to lose water and hydrolyze [6] | relative humidity above which the form is particularly stable [7] [%] | temperature above which the form dehydrates (to monohydrate form A) ([3]; temperature stress)
NC(=O)[C@@H]1CC[C@@H]2CN1C(=O)N2OS(=O)(=O)O [avibactam free acid, [(2S,5R)-2-carbamoyl-7-oxo-1,6-diazabicylco[3.2.1]octan-6-yl] hydrogen sulfate] | no antibacterial activity at clinically relevant doses | about 0.3 weight % | very stable against temperature stress | at least 130 °C | low hygroscopicity | very stable against moisture |  |  | 
NC(=O)C1CCC2CN1C(=O)N2OS(=O)(=O)[O-].O.[Na+] (stereo not shown) [form A] |  |  | dehydrates to the anhydrous form B |  |  |  |  |  | 
NC(=O)[C@@H]1CC[C@@H]2CN1C(=O)N2OS(=O)(=O)[O-].O.O.[Na+] [form E] |  |  |  |  |  |  | tends to lose water and to hydrolyze | > 70 | above 60 °C
